{"source": "paper PMC5336470", "about": "“Insights into the mechanism of membrane pyrophosphatases by combining experiment and computer simulation” (Structural Dynamics, 2017)", "target": "T1, VrPPase (Vigna radiata, UniProt P21616)", "T1 construct": "VrPPase reconstituted into liposomes (proteoliposomes); homodimer", "T1 sequence (P21616 2-766)": "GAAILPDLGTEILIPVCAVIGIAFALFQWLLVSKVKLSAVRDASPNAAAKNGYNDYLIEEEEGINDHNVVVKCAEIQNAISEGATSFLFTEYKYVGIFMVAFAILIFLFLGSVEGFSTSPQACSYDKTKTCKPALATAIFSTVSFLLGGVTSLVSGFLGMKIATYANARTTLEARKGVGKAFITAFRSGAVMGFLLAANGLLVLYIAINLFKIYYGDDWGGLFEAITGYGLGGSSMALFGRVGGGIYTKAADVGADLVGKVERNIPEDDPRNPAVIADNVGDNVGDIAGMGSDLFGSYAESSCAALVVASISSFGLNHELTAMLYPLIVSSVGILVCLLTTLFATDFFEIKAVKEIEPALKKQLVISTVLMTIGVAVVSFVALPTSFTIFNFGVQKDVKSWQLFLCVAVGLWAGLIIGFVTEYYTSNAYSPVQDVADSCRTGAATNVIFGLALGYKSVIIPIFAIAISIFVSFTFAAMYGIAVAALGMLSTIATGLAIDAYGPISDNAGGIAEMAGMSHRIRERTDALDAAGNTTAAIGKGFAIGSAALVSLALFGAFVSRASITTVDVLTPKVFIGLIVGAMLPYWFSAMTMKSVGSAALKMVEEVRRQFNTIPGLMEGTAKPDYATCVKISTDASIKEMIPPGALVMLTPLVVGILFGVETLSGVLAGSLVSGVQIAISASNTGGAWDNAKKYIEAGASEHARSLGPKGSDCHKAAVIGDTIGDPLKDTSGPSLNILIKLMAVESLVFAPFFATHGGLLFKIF", "assay": "SURFE2R N1 electrometric proton-pumping current, proteoliposomes", "type": "biochemical", "conditions": "200 uM K2HPO4 as control, 10 uM CCCP as protonophore control"}
{"smiles": "O=P(O)(O)NP(=O)(O)O", "note": "[imidodiphosphate]", "values": [{"measurement": "SURFE2R N1 electrometric proton-pumping current, proteoliposomes", "setting": "50 uM IDP, non-hydrolysable substrate analogue", "value": "IDP-bound VrPPase specifically pumps protons"}]}
{"smiles": "O=P(O)(O)CP(=O)(O)O", "note": "[methylene diphosphonate]", "values": [{"measurement": "SURFE2R N1 electrometric proton-pumping current, proteoliposomes", "setting": "50 uM MEDP, non-hydrolysable substrate analogue", "value": "VrPPase in the presence of another substrate analogue, methylene diphosphonate (MEDP), similarly produces a change"}]}
{"smiles": "O=P(O)(O)OP(=O)(O)O", "note": "[pyrophosphate]", "values": [{"measurement": "SURFE2R N1 electrometric proton-pumping current, proteoliposomes", "setting": "50 uM K4PPi", "value": "Addition of CCCP to membrane-embedded VrPPase in the presence of PPi reduces the ion-pumping current"}]}
